Experimental data from patent US10376553B2, “Pharmaceutical composition for preventing and treating chronic obstructive lung disease containing, as active ingredient, Magnoliae flos extract, fraction, or active fraction thereof” (KOREA RESEARCH INSTITUTE OF BIOSCIENCE AND BIOTECHNOLOGY, priority 2015, dated 2019).

Assays:
H292 cells = assay: Cytotoxicity (CCK-8 cell viability) of the compounds of Magnoliae flos in H292 cells; format: cell-based, human; settings: 2.5 μM, 24 h, vs 0.2% DMSO control = 100%
Protocol: Then, 10 μl of the CCK-8 solution (Dojindo Laboratories, Japan) was mixed with 90 μl of the medium, and 100 μl thereof was added per well. After incubation for a minimum of 30 minutes to a maximum of 4 hours, the absorbance was measured at 570 nm. The cell viability was calculated according to the following Equation 2 with a negative control group treated with 0.2% DMSO as a reference of 100%.
Cell viability=(Compound treated OD 570 nm value)×100/(Negative control group OD 570 nm value) [Equation 2]

MUC5AC protein = assay: Inhibition of MUC5AC protein production (immunoassay) by the compounds; format: cell-based, human; settings: for Inhibition rate (%): MUC5AC secretion, TNF-α 20 ng/mL; for production of MUC5AC (in words): vs TNF-α treated group = 100%
Protocol: For immunoassay of the resulting MUC5AC, the supernatant (50 uL) recovered was dispensed on to a 96-well plate and dried in a thermostat set at 50° C. It was washed with PBS supplemented with 1% BSA and reacted with an MUC5AC antibody (abcam, USA) at room temperature for 1 hour. A secondary antibody was dispensed thereto for reaction for 1 hour. It was washed again and then reacted with a 3,3′,5,5′-tetramethylbenzidine peroxide solution for 20 minutes. After the reaction was stopped with a sulfuric acid solution, the degree of color development was measured at 450 nm.
As a result, as shown in the following Table 6, the amount of MUCSAC secretion increased in the group treated with TNF-α.

MUC5AC promoters = assay: MUC5AC promoter luciferase reporter assay in H292 cells; format: cell-based, human; settings: Table 7, MUC5AC promoter luciferase reporter, 10 μM, TNF-α 20 ng/mL
Excerpt: The degree of activation of luciferase was confirmed using a One-glow Luciferase Assay System (Promega).
As a result, as shown in the following Table 7, the activity of the MUC5AC promoters increased in the group treated with TNF-α.

[1] = system: inflammatory cells in the bronchoalveolar lavage fluid; assay: Inflammatory cells in bronchoalveolar lavage fluid of the COPD mouse model (cigarette smoke + LPS); format: in vivo, C57BL/6N mice; settings: BALF, vs COPD-induced group
Protocol: Six-week-old male SPF (specific pathogen-free) C57BL/6N mice (22 to 24 g) were supplied by Koatech (Korea). These animals were fed with a sufficient amount of solid feed (no antibiotics, Samyang Feed Co.) and water until the day of the experiment. They were allowed to adapt for 1 week in a light-dark cycle environment at a temperature of 22±2° C. and a humidity of 55±15%, and then subjected to the experiment.
The animal model was exposed to cigarette smoke to induce chronic obstructive pulmonary disease. 3R4F Kentuchy Reference Cigarettes as standard cigarettes for use to generate cigarette smoke were supplied by University of California (USA). The standard cigarettes contain 9.4 mg of tar, 11 mg of total particle matter (TPM), and 12 mg of carbon monoxide per 1 cigarette. The standard cigarettes were used after harmonization for 48 hours to 72 hours at a temperature of 22±1° C. and a humidity of 60±2%. Further, Cigarette Smoke Generator manufactured by Korea BioLink (Korea) was used for exposure to cigarette smoke. Cigarette smoke was inhaled for 1 hour (8 pcs/hour) for 7 days from 1 hour after oral administration of a sample. 10 μg of LPS (lipopolysaccharide) in PBS 50 μL was injected intranasally to each mouse on the 4th day of the experiment after the mouse was anesthetized with zoletyl 1 hour before the exposure to cigarette smoke. The smoking condition was 8 puffs per 1 standard cigarette (volume: 45 mL, duration: 2 seconds, and interval: 1 time/min).
The active fraction of Magnoliae flos (15, 30 mg/kg) and roflumilast (10 mg/kg) as therapeutic substances were dissolved in 0.5% sodium carboxymethyl cellulose and were orally administered 1 hour before the exposure to cigarette smoke.
The experimental groups were divided into (i) normal control (NC) group; (ii) cigarette smoke+LPS exposure group (COPD); (iii) experimental group administered with roflumilast (ROF) (10 mg/kg, p.o) 1 hour before the exposure to cigarette smoke+LPS; and (iv) experimental group administered with the active fraction of Magnoliae flos (15, 30 mg/kg, p.o; Magnoliae flos 15 and Magnoliae flos 30) 1 hour before the exposure to cigarette smoke+LPS. […] Then, they were administered in the same manner as above.
The bronchial alveolar lavage fluid was separated from the animal model treated with the active fraction and the compounds of Magnoliae flos in <Test Example 6-2> above in the following manner, and the number of inflammatory cells was measured.
Specifically, a mouse sonde was inserted into the bronchial tube, a 1 mL syringe containing 0.7 mL of DPBS (Dulbecco's Phosphate-Buffered Saline) was connected thereto, and DPBS was injected into the lung. The injected DPBS was recovered, and this procedure was repeated twice. The bronchoalveolar lavage fluid separated by DPBS was centrifuged at 1,500 rpm for 15 minutes to make a cell pellet. The supernatant was stored frozen at −70° C. for cytokine analysis. Each cell obtained was suspended in DPBS, attached to a slide glass using a cytospin centrifuge, and Diff-Quik stained. The number of inflammatory cells in each sample was counted through microscopic examination, and the inhibition rate was calculated according to the following Equation 3.
Inhibition rate=(Value of COPD-induced group−value of target substance administered group)×100/(Value of COPD-induced group) [Equation 3]

reactive oxygen species = assay: Production of active oxygen species in BALF of the COPD model (DCF-DA); format: in vivo, C57BL/6N mice; settings: vs COPD-induced group; for production of active oxygen species (in words): 15 and 30 mg/kg
Protocol: Production of active oxygen species in the bronchoalveolar lavage fluid obtained in <Test Example 6-3> above was confirmed by the following method.
Specifically, the separated BALF (200 μL) was treated to the final concentration of 20 μM of DCF-DA (dihydrodichlorofluorescein diacetate, Sigma-Aldrich, USA), followed by culturing for 30 minutes and measurement using Fluorescence (Molecular Device, USA). The inhibition rate was calculated by Equation 3 above.

IL-6 = IL-6 level in BALF of the COPD model (ELISA); format: in vivo, C57BL/6N mice; settings: vs COPD-induced group; for IL-6 inhibition rate (%): BALF
Protocol: (§1) Cytokines were measured in the cell supernatant obtained in <Test Example 6-3> above by the following method. Specifically, the levels of IL-6 (R & D System, USA) and TNF-α (BD Bioscience, USA) in the separated BALF were measured by enzyme-linked immuno-sorbent assay (ELISA). Each cytokine analysis was carried out according to the manufacturer's test method.

TNF-α = TNF-α level in BALF of the COPD model (ELISA); format: in vivo, C57BL/6N mice; settings: vs COPD-induced group; for TNF-α inhibition rate (%): BALF
Protocol: as §1

Structure (SMILES) | Inhibition rate (%) (MUC5AC protein; 2.5 μM) | Inhibition rate (%) (MUC5AC protein; 5 μM) | Inhibition rate (%) (MUC5AC protein; 10 μM) | Inhibition rate of inflammatory cell infiltration (%) Macrophage ([1]; 15 mg/kg p.o.) | Inhibition rate of inflammatory cell infiltration (%) Neutrophil ([1]; 15 mg/kg p.o.) | Inhibition rate of inflammatory cell infiltration (%) Total inflammatory cells ([1]; 15 mg/kg p.o.) | Inhibition rate of inflammatory cell infiltration (%) Macrophage ([1]; 30 mg/kg p.o.) | Inhibition rate of inflammatory cell infiltration (%) Neutrophil ([1]; 30 mg/kg p.o.) | Inhibition rate of inflammatory cell infiltration (%) Total inflammatory cells ([1]; 30 mg/kg p.o.) | Active oxygen inhibition rate (%) (reactive oxygen species; 15 mg/kg p.o.) | Active oxygen inhibition rate (%) (reactive oxygen species; 30 mg/kg p.o.) | production of active oxygen species (in words) (reactive oxygen species) | IL-6 inhibition rate (%) (IL-6; 15 mg/kg p.o.) | IL-6 inhibition rate (%) (IL-6; 30 mg/kg p.o.) | TNF-α inhibition rate (%) (TNF-α; 15 mg/kg p.o.) | TNF-α inhibition rate (%) (TNF-α; 30 mg/kg p.o.) | TNF-α secretion in the bronchoalveolar lavage fluid (in words) (TNF-α) | further results
COc1cc([C@H]2OC[C@H]3[C@@H]2CO[C@@H]3c2cc(OC)c(OC)c(OC)c2)cc(OC)c1OC [Compound S3, dimethylliroresinol] | 2.5% | 29.38% | 30.34% | 19.4 ± 5.4% | 17.9 ± 6.6% | 23.3 ± 5.5% | 33.2 ± 6.2% | 42.1 ± 3.9% | 43.5 ± 3.4% | 15.1 ± 4.7% | 32.5 ± 3.1% | relatively higher inhibition rates in a manner depending on concentration | 45.9 ± 6.2% | 43.9 ± 6.5% | 26.7 ± 7.0% | 41.7 ± 4.4% | concentration-dependent inhibition | Viability of H292 cells (%, average ± deviation) (H292 cells): 100.55 ± 1.26%; production of MUC5AC (in words) (MUC5AC protein): inhibited in a manner depending on the concentrations; production of MUC5AC (in words) (MUC5AC protein; listed as Formula 4): inhibited the production of MUC5AC in a manner depending on concentration; Inhibition rate (%) (MUC5AC promoters): 56.27%; increase in inflammatory cells (in words) [1]: effectively inhibited
COc1ccc([C@H]2OC[C@H]3[C@@H]2CO[C@@H]3c2ccc3c(c2)OCO3)cc1OC [Compound S5, dimethoxyaschantin] | 13.93% | 10.12% | 16.43% | 28.3 ± 7.2% | 44.2 ± 4.1% | 33.0 ± 4.4% | 37.1 ± 7.1% | 53.2 ± 5.4% | 43.2 ± 5.4% | 31.3 ± 2.5% | 39.7 ± 3.5% | relatively higher inhibition rates in a manner depending on concentration | 36.1 ± 5.5% | 48.8 ± 4.4% | 32.9 ± 4.8% | 39.1 ± 1.9% | concentration-dependent inhibition | IL-6 in the bronchoalveolar lavage fluid (in words) (IL-6): concentration-dependent decrease
